Laboratory results as given in patent US20260022118A1, “HETEROCYCLIC COMPOUNDS AS NRAS INHIBITORS” (Board of Regents, The University of Texas System, priority 2023, published 2026).

How the values were obtained:
[1] = system: THP-1 cells expressing G12D (NRAS G12D); assay: Inhibition of NRAS G12D-mediated phosphorylation of ERK (AlphaLISA p-ERK1/2) in THP-1 cells; assay type: cell-based; settings: Homo sapiens, THP-1, 2 h, 2 hours incubation, HBSS with 0% or 10% FBS, p-ERK1/2 (Thr202/Tyr204) AlphaLISA, read-out: pERK THP-1 IC50
Procedure, shortened: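 THP-1 cells expressing NRAS G12D, seeded in HBSS with 0% or 10% FBS, were exposed to test compound (1% DMSO final) for 2 h. p-ERK1/2 (Thr202/Tyr204) read by AlphaLISA SureFire Ultra. IC50 from curves normalized to no-inhibitor (100%) and 1 μM trametinib (0%) controls.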

NRAS G12D C118S = NRAS G12D C118S (Homo sapiens (Human), UniProt P01111, C118S/G12D); assay: NRas G12D Surface Plasmon Resonance (SPR) binding assay; settings: Avi-tagged biotinylated NRAS G12D C118S on streptavidin chip, 25° C., 1:1 kinetic or steady-state fit
Procedure: NRas G12D Surface Plasmon Resonance (SPR) Binding Assay
This Example illustrates that exemplary compounds and salts thereof described herein bind to NRAS G12D as measured by surface plasmon resonance (SPR).
Two liters of 1.03× running buffer (1.03×HBS-P+pH 7.4, containing 0.0103 M HEPES, 0.1545 M NaCl, 0.0515% v/v Surfactant P20 (Cytiva®, BR100671); 5.15 mM MgCl2 (Invitrogen, AM9530G); 0.515 mM TCEP, pH 8.0 (GoldBio®, TCEP25)) was prepared and filter sterilized using a 0.22 μm filter. A 1-L volumetric flask was filled partway with this buffer. A 30-mL volumetric flask was used to measure 30 mL of 100% DMSO (Sigma Aldrich®, 41639-100ML) which was added to the 1-L flask. The solution in the 1-L flask was brought up to 1 L with 1.03× buffer, resulting in a 1.0× assay running buffer containing 1.0×HBS-P+, 5 mM MgCl2, […], and 3% DMSO. Remaining 1.03× buffer was used for preparation of samples and immobilization running buffer.
Samples were prepared in a standard conical-bottomed 384-well microplate by adding 2 μL 10 mM DMSO cpd stock to each well, followed by 8 μL DMSO. A control compound was selected based off of its relatively “fast” kinetics that could be fitted by 1:1 kinetic fitting, as well as by steady-state fitting. Control wells for periodic injection to assess protein activity throughout the assay were also assembled, by diluting 10 mM compound 1:30 in DMSO, then adding 20 μL to the appropriate wells, such that the final concentration of compound would be 10 μM, and the final concentration of DMSO would be 3%. A Biomek™ FXP Laboratory Automation Workstation was used to stamp 20 μL DMSO into all sample wells—minus the control wells—according to the plate map, and then serially dilute 1:3 by mixing and aspirating 10 μL, delivering into the 20 μL of DMSO in the next well, resulting in 10-point serial dilution curves. A Biotek™ Multiflo EL406 Washer Dispenser was used to deliver 80 μL of 1.03× buffer to the compound plate. The plate was mixed 10× by FX, then a final dilution was performed by stamping 18 μL from the compound plate into a 384-well deep-well plate that had also been previously filled with 102 μL 1.03× buffer via the Multiflo. The solution in the deep-well plate was mixed 10× by FX, then sealed with a 384-well microplate foil from Cytiva® (Cytiva® BR100577) and placed on an orbital shaker for 30 minutes at 1000 RPM to ensure complete mixing of the DMSO solution in the buffer. A solvent correction curve was also prepared by making a 4% DMSO solution in 1.03× buffer and diluting in 1.03× buffer such that there were eight solutions of decreasing DMSO concentrations resulting in a high DMSO concentration of 4% and a low concentration of 2% DMSO.
Immobilization running buffer was prepared in a 200-mL volume by diluting 1.03× running buffer prepared above to 1.0×. A Cytiva® Streptavidin chip (Cytiva®, 29104992) was docked into a Biacore™ S200 instrument, and the instrument was then primed three times into the immobilization running buffer. A protein stock of Avi-tagged NRAS G12D C118S was prepared in-house and biotinylated using the Bulk BirA: BirA biotin-protein ligase bulk reaction kit from Avidity (Avidity®, Bulk BirA). Upon completion of the biotinylation reaction, Amicon® ultra 0.5-mL Centrifugal Filters with a MWCO of 3 k Da (Millipore® UFC500396) were used to reduce the free biotin concentration below 0.1 μM in the protein sample over the course of eight desalting cycles, according to the manufacturer's protocol. Resulting protein concentration was not measured directly as an accurate protein concentration is not required for immobilizing protein on the chip surface; however, a theoretical yield of ≤1.5 mg/mL was estimated based off of retained volumes during the desalting process. Reagents for immobilization were prepared as instructed in the Biacore™ 5200 Control Software Immobilization Wizard, including solutions of 1 M NaCl in 50 mM NaOH, and 1 M NaCl in 50 mM NaOH and 50% isopropyl alcohol. […]

Chain of NRAS G12D C118S (P01111 whole entry G12D/C118S): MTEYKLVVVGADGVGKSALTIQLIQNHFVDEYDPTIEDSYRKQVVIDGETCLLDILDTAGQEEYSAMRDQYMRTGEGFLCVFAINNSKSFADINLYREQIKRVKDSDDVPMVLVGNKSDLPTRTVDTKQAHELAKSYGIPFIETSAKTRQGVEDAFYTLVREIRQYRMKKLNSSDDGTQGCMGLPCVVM

Row | IC50 [1] | Kd (NRAS G12D C118S) | SMILES
1 | > 10000 nM | 9940 nM | C#Cc1c(F)ccc2cc(O)cc(-c3ncc4c(c3F)n(C)c(=O)n4C3[C@H]4CNC[C@@H]34)c12 (stereo partly drawn) [Example 45, 3-[(1R,5S)-3-azabicyclo[3.1.0]hexan-6-yl]-6-(8-ethynyl-7-fluoro-3-hydroxy-1-naphthyl)-7-fluoro-1-methyl-imidazo[4,5-c]pyridin-2-one]
2 | 1940 nM | 60.7 nM | C#Cc1c(F)ccc2cc(O)cc(-c3ncc4c([C@H]5[C@@H]6CNC[C@@H]65)nn(C5C[C@@H]5C)c4c3F)c12 (stereo partly drawn) [Example 46, 4-(3-((1R,5S,6r)-3-azabicyclo[3.1.0]hexan-6-yl)-7-fluoro-1-((1S,2S)-2-methylcyclopropyl)-1H-pyrazolo[4,3-c]pyridin-6-yl)-5-ethynyl-6-fluoronaphthalen-2-ol]
3 | 438 nM | 81.5 nM | C#Cc1c(F)ccc2cc(O)cc(-c3ncc4c(C5C6CNCC65)nn(C5CC5(F)F)c4c3F)c12 (centres unmarked) [Example 49, 4-[3-(3-azabicyclo[3.1.0]hexan-6-yl)-1-(2,2-difluorocyclopropyl)-7-fluoro-pyrazolo[4,3-c]pyridin-6-yl]-5-ethynyl-6-fluoro-naphthalen-2-ol]
4 | 4800 nM | 300 nM | C#Cc1c(F)ccc2cc(O)cc(-c3ncc4c([C@H]5[C@@H]6CNC[C@@H]65)c(C#N)n(C)c4c3F)c12 [Example 58, 3-((1R,5S,6s)-3-azabicyclo[3.1.0]hexan-6-yl)-6-(8-ethynyl-7-fluoro-3-hydroxynaphthalen-1-yl)-7-fluoro-1-methyl-1H-pyrrolo[3,2-c]pyridine-2-carbonitrile]
5 | 3470 nM | 1110 nM | C#CCn1nc([C@H]2[C@@H]3CNC[C@@H]32)c2cnc(-c3cc(O)cc4ccc(F)c(C#C)c34)c(F)c21 [Example 59, 4-(3-((1R,5S,6r)-3-azabicyclo[3.1.0]hexan-6-yl)-7-fluoro-1-(prop-2-yn-1-yl)-1H-pyrazolo[4,3-c]pyridin-6-yl)-5-ethynyl-6-fluoronaphthalen-2-ol]
6 | 23000 nM | 2550 nM | C#Cc1c(F)ccc2cc(O)cc(-c3ncc4c(N5C[C@H]6CC[C@@H]5CN6)nn(C)c4c3F)c12 [Example 60, 4-(3-((1R,4R)-2,5-diazabicyclo[2.2.2]octan-2-yl)-7-fluoro-1-methyl-1H-pyrazolo[4,3-c]pyridin-6-yl)-5-ethynyl-6-fluoronaphthalen-2-ol]
7 | 477 nM | 15.8 nM | C#Cc1c(F)ccc2cc(O)cc(-c3nc(OC)c4c([C@H]5[C@@H]6CNC[C@@H]65)nn(C5CC5)c4c3F)c12 [Example 61, 4-(3-((1R,5S,6r)-3-azabicyclo[3.1.0]hexan-6-yl)-1-cyclopropyl-7-fluoro-4-methoxy-1H-pyrazolo[4,3-c]pyridin-6-yl)-5-ethynyl-6-fluoronaphthalen-2-ol]
8 | 115 nM | 18.8 nM | C#Cc1c(F)ccc2cc(O)cc(-c3nc(OC(C)C)c4c([C@H]5[C@@H]6CNC[C@@H]65)nn(C5CC5)c4c3F)c12 [Example 62, 4-(3-((1R,5S,6r)-3-azabicyclo[3.1.0]hexan-6-yl)-1-cyclopropyl-7-fluoro-4-isopropoxy-1H-pyrazolo[4,3-c]pyridin-6-yl)-5-ethynyl-6-fluoronaphthalen-2-ol]
9 | 185 nM | 8.29 nM | C#Cc1c(F)ccc2cc(O)cc(-c3nc(OCC)c4c([C@H]5[C@@H]6CNC[C@@H]65)nn(C5CC5)c4c3F)c12 [Example 63, 4-(3-((1R,5S,6r)-3-azabicyclo[3.1.0]hexan-6-yl)-1-cyclopropyl-4-ethoxy-7-fluoro-1H-pyrazolo[4,3-c]pyridin-6-yl)-5-ethynyl-6-fluoronaphthalen-2-ol]
10 | 1060 nM | 125 nM | C#Cc1c(F)ccc2cc(O)cc(-c3nc(OC4CCCC4)c4c([C@H]5[C@@H]6CNC[C@@H]65)nn(C5CC5)c4c3F)c12 [Example 65, 4-(3-((1R,5S,6r)-3-azabicyclo[3.1.0]hexan-6-yl)-4-(cyclopentyloxy)-1-cyclopropyl-7-fluoro-1H-pyrazolo[4,3-c]pyridin-6-yl)-5-ethynyl-6-fluoronaphthalen-2-ol]
11 | 1190 nM | 114 nM | C#Cc1c(F)ccc2cc(O)cc(-c3nc(OC(F)F)c4c([C@H]5[C@@H]6CNC[C@@H]65)nn(C5CC5)c4c3F)c12 [Example 66, 4-(3-((1R,5S,6r)-3-azabicyclo[3.1.0]hexan-6-yl)-1-cyclopropyl-4-(difluoromethoxy)-7-fluoro-1H-pyrazolo[4,3-c]pyridin-6-yl)-5-ethynyl-6-fluoronaphthalen-2-ol]
12 | 763 nM | 114 nM | C#Cc1c(F)ccc2cc(O)cc(-c3nc(OCC(F)(F)F)c4c([C@H]5[C@@H]6CNC[C@@H]65)nn(C5CC5)c4c3F)c12 [Example 67, 4-(3-((1R,5S,6r)-3-azabicyclo[3.1.0]hexan-6-yl)-1-cyclopropyl-7-fluoro-4-(2,2,2-trifluoroethoxy)-1H-pyrazolo[4,3-c]pyridin-6-yl)-5-ethynyl-6-fluoronaphthalen-2-ol]
13 | > 10000 nM | 1790 nM | C#Cc1c(F)ccc2cc(O)cc(-c3nc(OC4CNC4)c4c([C@H]5[C@@H]6CNC[C@@H]65)nn(C5CC5)c4c3F)c12 [Example 69, 4-(4-(azetidin-3-yloxy)-3-((1R,5S,6r)-3-azabicyclo[3.1.0]hexan-6-yl)-1-cyclopropyl-7-fluoro-1H-pyrazolo[4,3-c]pyridin-6-yl)-5-ethynyl-6-fluoronaphthalen-2-ol]

Row | SMILES | IC50 [1] | Kd (NRAS G12D C118S)
14 | C#Cc1c(F)ccc2cc(O)cc(-c3ncc4c(N5C[C@@H]6C[C@H](O)[C@H](C5)N6)nn(C)c4c3F)c12 [Example 57, (1S,5S,6S)-3-(6-(8-ethynyl-7-fluoro-3-hydroxynaphthalen-1-yl)-7-fluoro-1-methyl-1H-pyrazolo[4,3-c]pyridin-3-yl)-3,8-diazabicyclo[3.2.1]octan-6-ol] | 17300 nM | 737 nM
15 | C#Cc1c(F)ccc2cc(O)cc(-c3nc(OC4CCC4)c4c([C@H]5[C@@H]6CNC[C@@H]65)nn(C5CC5)c4c3F)c12 [Example 64, 4-(3-((1R,5S,6r)-3-azabicyclo[3.1.0]hexan-6-yl)-4-cyclobutoxy-1-cyclopropyl-7-fluoro-1H-pyrazolo[4,3-c]pyridin-6-yl)-5-ethynyl-6-fluoronaphthalen-2-ol] | 480 nM | 24.3 nM
16 | C#Cc1c(F)ccc2cc(O)cc(-c3nc(OC4CC(F)(F)C4)c4c([C@H]5[C@@H]6CNC[C@@H]65)nn(C5CC5)c4c3F)c12 [Example 68, 4-(3-((1R,5S,6r)-3-azabicyclo[3.1.0]hexan-6-yl)-1-cyclopropyl-4-(3,3-difluorocyclobutoxy)-7-fluoro-1H-pyrazolo[4,3-c]pyridin-6-yl)-5-ethynyl-6-fluoronaphthalen-2-ol] | 2130 nM | 566 nM
